Data on 14 compounds can be found in publication PMC6651501, “Design, Synthesis and Biological Evaluation of Novel Osimertinib-Based HDAC and EGFR Dual Inhibitors” (Molecules, 2019).

Data set [1] concerns the target EGFR (T790M) (Homo sapiens, UniProt P00533, T790M). Put plainly: In vitro EGFR inhibition, Kinase-Glo Plus luminescence kinase assay. The class given is biochemical. The settings on record: for inhibition at 1 µM: 1 μM compound, read-out: EGFR (T790M) Inhibition Rate at 1 μM; for IC50: 10 µM ATP. The procedure:
(§1) The assay was performed using Kinase-Glo Plus luminescence kinase assay kit. All of the enzymatic reactions were conducted at 30 °C for 40 min. The 50 µL reaction mixture in assay buffer contained 10 µM ATP, EGFR kinases, and different concentrations of compounds. Kinase activity was measured by quantitating the amount of ATP remaining in solution following a kinase reaction. The luminescent signal from the assay is correlated with the amount of ATP present and is inversely correlated with the amount of kinase activity. The IC50 values were calculated using nonlinear regression with normalized dose−response fit using Prism GraphPad software (GraphPad Software, San Diego, CA, USA).
(Kinase-Glo measures the ATP left after a reaction by luminescence.)

Data set [2] relates to MDA-MB-468. As to the kind of experiment: In vitro anti-proliferative MTT assay. The settings on record: Homo sapiens, MDA-MB-468, 72 h, read-out: IC50 MDA-MB-468.
Description: (§2) Cell proliferation assay was determined by the MTT (3-[4,5-dimethyl-2-thiazolyl]-2,5-diphenyl-2H-tetrazolium bromide) method. Briefly, cells were passaged the day before dosing into a 96-well plate, allowed to grow for 12 h, and then treated with different concentrations of compound for 72 h. A 0.5% MTT solution was added to each well. After incubation for another 4 h, formazan formed from MTT was extracted by adding 200 μL of DMSO. Absorbance was then determined using a microplate reader at 570 nm.
The test system of data set [3] is HeLa. As to the kind of experiment: In vitro anti-proliferative MTT assay. To be noted: Homo sapiens, 72 h, read-out: IC50 HeLa. Background: Tetrazolium dyes change colour on reduction, which living cells bring about.
Description: as §2
For data set [4], the system named is HDAC (HeLa cell nuclear extract, mainly contains HDAC1 and 2). Put plainly: In vitro HDACs inhibition fluorescent assay (HeLa cell nuclear extract). To be noted: read-out: HDAC IC50; HeLa cell nuclear extract as enzyme source.
Description: The HDAC inhibitory activities of all the target compounds were evaluated using HeLa cell nuclear extract (mainly contains HDAC1 and 2) as enzyme source.
In brief, 10 μL of HeLa cell nuclear extract was mixed with different concentrations of tested compound (50 μL). […] The inhibition ratios were calculated from the fluorescence intensity readings of tested wells relative to those of control wells, and the IC50 values were calculated using a regression analysis of the concentration/inhibition data.
Data set [5] deals with A549. Put plainly: In vitro anti-proliferative MTT assay. It counts as cell-based. To be noted: Homo sapiens, 72 h.
Data set [6] has as its system MDA-MB-231. Put plainly: In vitro anti-proliferative MTT assay. To be noted: Homo sapiens, MDA-MB-231, 72 h, read-out: IC50 MDA-MB-231.
Description: as §2
For data set [7], the system named is KG-1. Put plainly: In vitro anti-proliferative MTT assay. To be noted: Homo sapiens, KG-1, 72 h, read-out: IC50 KG-1.
Description: as §2
The test system of data set [8] is PC-3. Put plainly: In vitro anti-proliferative MTT assay. The class given is cell-based. The settings on record: Homo sapiens, 72 h.
Data set [9] deals with HT-29. Put plainly: In vitro anti-proliferative MTT assay. The settings on record: Homo sapiens, HT-29, 72 h, read-out: IC50 HT-29.
Description: as §2
Data set [10] deals with thirteen cancer-related kinases. Put plainly: Kinases inhibition assay (Eurofins Cerep, LANCE detection). The settings on record: 100 nM compound, Figure 4. It counts as biochemical, human. The protocol:
Compound 9E was further tested against thirteen cancer-related kinases to characterize its protein kinase selective profile.
The kinase inhibition assays were performed by Eurofins Cerep Corporation in France. In brief, evaluation of the effects of compounds on the activity of the human kinases was quantified by measuring the phosphorylation of the corresponding substrate using human recombinant enzymes and the LANCE detection method.

Data set [11] concerns the target T1, BRD4 (BD1) (Homo sapiens, UniProt O60885).
T1 construct: using the recombinant BRD4 (BD1) and its corresponding ligand (BET)
As to the kind of experiment: BRD4 inhibition assay (TR-FRET). The class given is binding. The settings on record: 1 μM compound. The protocol: The assay was performed by TR-FRET technology using the recombinant BRD4 (BD1) and its corresponding ligand (BET). The TR-FRET signal from the assay is correlated with the amount of ligand binding to the bromodomain. All of the binding reactions were conducted at room temperature. The 20 µL reaction mixture in assay buffer contained bromodomains, BET ligand and the indicated amount of inhibitor. For the negative control (blank), 5 µL of the assay buffer was added instead of the BET ligand. The reaction mixture was incubated for 120 min, then TR-FRET signal was measured using Tecan Infinite M1000 plate reader (Tecan, Männedorf, Switzerland).
For orientation: Time-resolved FRET reads energy transfer from a long-lived donor to a nearby acceptor.

Data set [12] addresses LSD1 (Homo sapiens, UniProt O60341). Put plainly: Amplex red coupled LSD1 inhibition assay. The class given is biochemical. To be noted: 10 μM compound. The procedure: Lysine specific demethylase 1 (LSD1, also known as KDM1A) is a kind of epigenetic eraser, which catalyzes the oxidative demethylation of histone 3 methyllysine 4 (H3K4me1) and histone 3 dimethyllysine 4 (H3K4me2). It has been reported that LSD1 is overexpressed in various cancer cells and tissues, and regarded as a potential anticancer target.
Amplex red coupled LSD1 inhibition assay was carried out following reported method. In brief, the compounds were incubated with the recombinant LSD1 and H3K4me2. After that, the fluorescence was measured at excitation wavelength 530 nm and emission wavelength 590 nm in order to evaluate the inhibition rate of the candidate compound.

The target of data set [13] is EGFR (WT) (Homo sapiens, UniProt P00533). As to the kind of experiment: In vitro EGFR inhibition, Kinase-Glo Plus luminescence kinase assay. The settings on record: 10 µM ATP. It counts as biochemical. The procedure: as §1
Sequence of EGFR (WT) (P00533 25-1210): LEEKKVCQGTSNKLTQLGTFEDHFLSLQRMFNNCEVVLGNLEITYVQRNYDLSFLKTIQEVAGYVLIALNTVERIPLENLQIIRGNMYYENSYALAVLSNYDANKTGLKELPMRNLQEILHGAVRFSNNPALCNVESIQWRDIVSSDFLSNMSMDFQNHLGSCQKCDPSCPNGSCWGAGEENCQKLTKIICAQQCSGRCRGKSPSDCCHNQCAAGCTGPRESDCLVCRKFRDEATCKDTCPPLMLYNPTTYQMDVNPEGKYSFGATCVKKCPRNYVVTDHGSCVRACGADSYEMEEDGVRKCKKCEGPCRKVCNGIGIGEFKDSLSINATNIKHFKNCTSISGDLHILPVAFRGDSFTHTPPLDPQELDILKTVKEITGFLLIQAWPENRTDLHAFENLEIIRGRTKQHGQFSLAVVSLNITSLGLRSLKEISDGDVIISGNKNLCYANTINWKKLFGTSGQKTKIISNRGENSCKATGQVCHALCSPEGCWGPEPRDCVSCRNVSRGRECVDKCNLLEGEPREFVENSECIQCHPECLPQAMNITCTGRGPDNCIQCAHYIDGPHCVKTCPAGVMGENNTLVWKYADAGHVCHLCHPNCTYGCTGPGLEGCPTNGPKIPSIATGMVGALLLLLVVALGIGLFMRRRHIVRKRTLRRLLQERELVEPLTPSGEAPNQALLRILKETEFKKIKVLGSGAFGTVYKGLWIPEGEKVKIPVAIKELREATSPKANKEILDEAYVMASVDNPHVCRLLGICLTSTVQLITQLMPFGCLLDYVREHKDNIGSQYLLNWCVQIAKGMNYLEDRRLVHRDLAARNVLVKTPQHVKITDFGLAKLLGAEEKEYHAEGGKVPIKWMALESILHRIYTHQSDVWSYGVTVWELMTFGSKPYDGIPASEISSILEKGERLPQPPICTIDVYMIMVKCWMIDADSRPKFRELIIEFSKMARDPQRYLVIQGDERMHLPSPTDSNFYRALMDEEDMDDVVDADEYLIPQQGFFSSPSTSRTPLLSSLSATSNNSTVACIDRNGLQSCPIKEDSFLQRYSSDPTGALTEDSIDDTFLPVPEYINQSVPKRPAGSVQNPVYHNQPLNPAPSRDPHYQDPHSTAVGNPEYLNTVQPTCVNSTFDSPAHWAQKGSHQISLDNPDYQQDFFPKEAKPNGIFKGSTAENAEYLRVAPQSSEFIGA

Molecules are shown by their SMILES.

Sequence of EGFR (T790M) (P00533 25-1210 T790M): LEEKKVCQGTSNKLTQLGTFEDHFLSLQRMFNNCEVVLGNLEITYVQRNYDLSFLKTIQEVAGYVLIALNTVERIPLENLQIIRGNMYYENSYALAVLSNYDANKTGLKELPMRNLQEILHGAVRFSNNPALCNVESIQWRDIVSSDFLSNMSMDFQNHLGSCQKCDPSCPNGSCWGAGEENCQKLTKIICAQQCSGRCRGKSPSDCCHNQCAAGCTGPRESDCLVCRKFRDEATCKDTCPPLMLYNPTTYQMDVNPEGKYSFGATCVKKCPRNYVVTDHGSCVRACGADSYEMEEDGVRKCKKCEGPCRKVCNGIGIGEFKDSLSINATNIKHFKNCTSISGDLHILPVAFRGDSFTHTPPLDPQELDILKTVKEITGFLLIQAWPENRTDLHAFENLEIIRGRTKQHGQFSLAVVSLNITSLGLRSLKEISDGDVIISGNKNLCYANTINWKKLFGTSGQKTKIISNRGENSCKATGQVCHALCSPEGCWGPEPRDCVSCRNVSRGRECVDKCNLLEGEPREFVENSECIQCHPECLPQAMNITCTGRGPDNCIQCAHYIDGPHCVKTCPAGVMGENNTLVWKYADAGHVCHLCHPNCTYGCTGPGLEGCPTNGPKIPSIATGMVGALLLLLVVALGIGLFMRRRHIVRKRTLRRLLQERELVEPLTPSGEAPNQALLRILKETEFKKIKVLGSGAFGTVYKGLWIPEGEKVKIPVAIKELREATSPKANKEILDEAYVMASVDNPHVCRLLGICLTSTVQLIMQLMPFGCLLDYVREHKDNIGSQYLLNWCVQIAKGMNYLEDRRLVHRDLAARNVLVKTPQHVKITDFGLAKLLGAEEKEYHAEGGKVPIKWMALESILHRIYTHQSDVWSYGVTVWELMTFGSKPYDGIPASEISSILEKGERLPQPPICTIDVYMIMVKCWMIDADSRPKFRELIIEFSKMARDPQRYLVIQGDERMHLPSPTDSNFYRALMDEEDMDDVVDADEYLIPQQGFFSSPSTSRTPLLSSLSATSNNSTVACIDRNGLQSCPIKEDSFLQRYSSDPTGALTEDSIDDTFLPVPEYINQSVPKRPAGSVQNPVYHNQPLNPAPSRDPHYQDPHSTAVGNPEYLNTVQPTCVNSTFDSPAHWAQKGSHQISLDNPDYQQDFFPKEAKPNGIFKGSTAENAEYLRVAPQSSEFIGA

As for `COc1cc(NC(=O)CCCC(=O)NO)ccc1Nc1nccc(-c2cn(C)c3ccccc23)n1` [Compound 9B, N^1-hydroxy-N^5-(3-methoxy-4-((4-(1-methyl-1H-indol-3-yl)pyrimidin-2-yl)amino)phenyl) glutaramide], the melting point was 146 to 148 °C. The inhibition at 1 µM in [1] stood at 37%.
On to `COc1cc(NC(=O)CCCCCC(=O)NO)ccc1Nc1nccc(-c2cn(C)c3ccccc23)n1` [Compound 9D, N^1-hydroxy-N^7-(3-methoxy-4-((4-(1-methyl-1H-indol-3-yl)pyrimidin-2-yl)amino)phenyl) heptanediamide], for which the IC50 stood at 1070 nM in data set [2]; 5640 nM in [3]; 121 nM in [4]; 5110 nM in [5]; 3690 nM in data set [6]; 3620 nM in data set [7]. Moreover, the IC50 in data set [8] is 5450 nM; in data set [9] it was 4130 nM. For the same compound, the inhibition at 1 µM in data set [1] worked out at 13%.
The compound `Cn1cc(-c2ccnc(Nc3ccc(C(=O)NCCCC(=O)NO)cc3)n2)c2ccccc21` [Compound 5B, N-(4-(hydroxyamino)-4-oxobutyl)-4-((4-(1-methyl-1H-indol-3-yl)pyrimidin-2-yl)amino) benzamide] gave a melting point of 165 to 168 °C. The inhibition at 1 µM in data set [1] amounted to 34%.
Turning to `COc1cc(NC(=O)CCCCC(=O)NO)ccc1Nc1nccc(-c2cn(C)c3ccccc23)n1` [Compound 9C, N^1-hydroxy-N^6-(3-methoxy-4-((4-(1-methyl-1H-indol-3-yl)pyrimidin-2-yl)amino)phenyl) adipamide], the melting point lay within 118 to 120 °C. Besides, the IC50 in [4] was 397 nM. In [1], the inhibition at 1 µM was determined as 12%.
Compound `COc1cc(NC(=O)CCC(=O)NO)ccc1Nc1nccc(-c2cn(C)c3ccccc23)n1` [Compound 9A, N^1-hydroxy-N^4-(3-methoxy-4-((4-(1-methyl-1H-indol-3-yl)pyrimidin-2-yl)amino)phenyl) succinimide] had a melting point of 151 to 153 °C. For the same compound, the inhibition at 1 µM in data set [1] came out at 38%.
Regarding `Cn1cc(-c2ccnc(Nc3ccc(C(=O)NO)cc3)n2)c2ccccc21` [Compound 10A, N-hydroxy-4-((4-(1-methyl-1H-indol-3-yl)pyrimidin-2-yl)amino) benzamide], the melting point was 108 to 111 °C. The inhibition at 1 µM in [1] amounted to 41%.
For `Cn1cc(-c2ccnc(Nc3ccc(C(=O)Nc4ccccc4N)cc3)n2)c2ccccc21` [Compound 10B, N-(2-aminophenyl)-4-((4-(1-methyl-1H-indol-3-yl)pyrimidin-2-yl)amino) benzamide] the same measures were 164 to 168 °C and 40%.
For `Cn1cc(-c2ccnc(Nc3ccc(C(=O)NCCC(=O)NO)cc3)n2)c2ccccc21` [Compound 5A, N-(3-(hydroxyamino)-3-oxopropyl)-4-((4-(1-methyl-1H-indol-3-yl)pyrimidin-2-yl)amino) benzamide] the same measures were 164 to 167 °C and 36%.
In the case of `COc1cc(NC(=O)CCCCCCC(=O)NO)ccc1Nc1nccc(-c2cn(C)c3ccccc23)n1` [Compound 9E, N^1-hydroxy-N^8-(3-methoxy-4-((4-(1-methyl-1H-indol-3-yl)pyrimidin-2-yl)amino)phenyl) octanediamide], the IC50 in data set [2] is 230 nM; in data set [3], 1850 nM; in data set [4], 85 nM; in [5] it was 2190 nM; in data set [6], 600 nM; in data set [7], 240 nM. The half-maximal inhibitory concentration (IC50) was determined as 5000 nM in data set [1], 5700 nM in [13], 3390 nM in data set [8] and 790 nM in data set [9]. Besides, the “Inhibition of 13 protein kinases at 100 nM” value in [10] is reported as “no significant inhibition”. For the same compound, in data set [11], the “BRD4 Inhibition Rate at 1 μM” value was “not active”. In addition, the inhibition at 1 µM in data set [11] (read-out: BRD4 Inhibition Rate at 1 μM) was 0%; in data set [1], 15%. Besides, in [12], the “LSD1 Inhibition Rate at 10 μM” value is recorded as “no significant inhibition”. Moreover, the inhibition at 10 µM in [12] (read-out: LSD1 Inhibition Rate at 10 μM) is 13%.
The compound `O=C(CCCCCCC(=O)Nc1ccccc1)NO` [SAHA, suberoylanilide hydroxamic acid, reference compound] displayed an IC50 in [5] of 2130 nM.
With `Cn1cc(-c2ccnc(Nc3ccc(C(=O)NCCCCC(=O)NO)cc3)n2)c2ccccc21` [Compound 5C, N-(5-(hydroxyamino)-5-oxopentyl)-4-((4-(1-methyl-1H-indol-3-yl)pyrimidin-2-yl)amino) benzamide], the melting point was 144 to 147 °C. In addition, in data set [4], the IC50 was 462 nM. Further, the inhibition at 1 µM in [1] is 42%.
On to `C=CC(=O)Nc1cc(Nc2nccc(-c3cn(C)c4ccccc34)n2)c(OC)cc1N(C)CCN(C)C` [AZD9291, osimertinib], for which the IC50 amounted to 1300 nM in data set [2]; 3270 nM in data set [3]; 1970 nM in data set [5]; 3540 nM in [6]; 530 nM in data set [7]; 1230 nM in [8]. The IC50 in data set [9] was 870 nM.
Take `Cn1cc(-c2ccnc(Nc3ccc(C(=O)NCCCCCCC(=O)NO)cc3)n2)c2ccccc21` [Compound 5E, N-(7-(hydroxyamino)-7-oxoheptyl)-4-((4-(1-methyl-1H-indol-3-yl)pyrimidin-2-yl)amino) benzamide]: the melting point lay within 161 to 163 °C. The half-maximal inhibitory concentration (IC50) in data set [2] was found to be 330 nM. Besides, the IC50 in data set [3] amounted to 2790 nM. In addition, the half-inhibitory concentration (IC50) in [4] was 105 nM. In data set [5], this compound had an IC50 of 2400 nM. In addition, the half-inhibitory concentration (IC50) in data set [6] worked out at 660 nM. The IC50 in data set [7] amounted to 520 nM. For the same compound, in data set [1], the inhibition at 1 µM is 44% and the IC50 stood at 1200 nM. Besides, the 50% inhibitory concentration (IC50) in data set [13] was found to be 3200 nM. Further, in [8], the IC50 was 2250 nM. The half-inhibitory concentration (IC50) in [9] is 1990 nM.
Consider `Cn1cc(-c2ccnc(Nc3ccc(C(=O)NCCCCCC(=O)NO)cc3)n2)c2ccccc21` [Compound 5D, N-(6-(hydroxyamino)-6-oxohexyl)-4-((4-(1-methyl-1H-indol-3-yl)pyrimidin-2-yl)amino) benzamide], for which the melting point was in the range of 168 to 170 °C. The IC50 in data set [2] came out at 660 nM. Also, the IC50 in data set [3] turned out to be 4060 nM. Further, the IC50 in data set [4] came to 23 nM. Also, in [5], the IC50 came to 3560 nM. In addition, in data set [6], the IC50 turned out to be 1160 nM. Further, the IC50 in data set [7] was 1470 nM. Moreover, the inhibition at 1 µM in data set [1] worked out at 35%. Besides, in data set [9], the IC50 stood at 2940 nM.

As a reminder, the melting point is the temperature of the solid-liquid transition. The inhibition is the percentage by which the read-out fell short of the control. Broadly, the IC50 is the concentration at which inhibition is half-maximal.
